Values joined by “and” are separate entries in the source; they are usually repeats but may differ in a detail not shown here. Identical values can stand only once.
Tests used:
[1] = Liquid; for mass density: Vibrating tube method
[2] = wn = mass fraction of the nth substance listed; conditions: 102 kPa, Liquid, Vibrating tube method

CCCCCCCCCCCC(=O)OCC(COC(=O)CCCCCCCCCCC)OC(=O)CCCCCCCCCCC [1,2,3-propanetriyl tridodecanoate]
[1], 100 kPa
Conditions | mass density [kg/m3]
303.15 K | 905.1
313.15 K | 899.6
333.15 K | 886.9
353.15 K | 870.4

CCCCCCCCCC(=O)OCC(COC(=O)CCCCCCCCC)OC(=O)CCCCCCCCC [1,2,3-propanetriyl tridecanoate]
[1]
Conditions | mass density [kg/m3] | vapor or sublimation pressure
293.15 K, 102 kPa | 921.6 | –
298.15 K, 102 kPa | 917.9 | –
303.15 K, 102 kPa | 913.6 | –
313.15 K, 102 kPa | 906.2 | –
333.15 K, 102 kPa | 891 | –
348.5 K, Langmuir technique | – | 1.39e-08 kPa and 1.36e-08 kPa
353.15 K, 102 kPa | 875.9 | –
353.48 K, Langmuir technique | – | 2.94e-08 kPa and 2.9e-08 kPa
358.38 K, Langmuir technique | – | 5.99e-08 kPa
363.18 K, Langmuir technique | – | 1.19e-07 kPa and 1.2e-07 kPa
367.8 K, Langmuir technique | – | 2.27e-07 kPa
367.81 K, Langmuir technique | – | 2.23e-07 kPa

CCCCCCCCCC(=O)OCC(COC(=O)CCCCCCCCC)OC(=O)CCCCCCCCC [1,2,3-propanetriyl tridecanoate] + CCCCCCCCO
mass density [kg/m3], [2]
Conditions | 293.15 K | 298.15 K | 303.15 K | 313.15 K | 333.15 K | 353.15 K
w1 = 0.016 | 826.5 | 823.1 | 819.5 | 812.6 | 798.6 | 783.8
w1 = 0.0385 | 828.7 | 825.1 | 821.6 | 814.7 | 800.7 | 785.9
w1 = 0.0772 | 832.5 | 829 | 825.4 | 818.5 | 804.3 | 789.5
w1 = 0.1287 | 837.4 | 833.9 | 830.3 | 823.3 | 809.1 | 794.4
w1 = 1 | 921.6 | 917.9 | 913.6 | 906.2 | 891 | 875.9

CCCCCCCCCCCC(=O)OCC(COC(=O)CCCCCCCCCCC)OC(=O)CCCCCCCCCCC [1,2,3-propanetriyl tridodecanoate] + CCCCCCCCO
mass density [kg/m3], [2]
Conditions | 293.15 K | 298.15 K | 303.15 K | 313.15 K | 333.15 K | 353.15 K
w1 = 0.019 | 826.7 | 823.3 | 819.7 | 812.8 | 798.7 | 784
w1 = 0.051 | 829.5 | 826.2 | 822.5 | 815.6 | 801.5 | 786.8
w1 = 0.096 | – | – | 826.8 | 819.7 | 805.6 | 790.9
w1 = 0.149 | – | – | 831 | 824 | 809.9 | 795.2
w1 = 1 | – | – | 905.1 | 899.6 | 886.9 | 870.4

CCCCCCCC(=O)OCC(COC(=O)CCCCCCC)OC(=O)CCCCCCC [1,2,3-propanetriol trioctanoate]
[1]
Conditions | mass density [kg/m3] | vapor or sublimation pressure [kPa]
293.15 K, 102 kPa | 952.7 | –
298.15 K, 102 kPa | 948.9 | –
298.15 K, 120 kPa | 949.9 | –
298.15 K, 9830 kPa | 955.5 | –
298.15 K, 20100 kPa | 961.3 | –
298.15 K, 30020 kPa | 966.6 | –
298.15 K, 40050 kPa | 971.9 | –
298.15 K, 50040 kPa | 977.1 | –
303.15 K, 102 kPa | 944.9 | –
313.15 K, 102 kPa | 937.4 | –
333.15 K, 102 kPa | 922.5 | –
353.15 K, 102 kPa | 907.7 | –
403.2 K, Transpiration method | – | 0.0002069
408.2 K, Transpiration method | – | 0.0003133
413.2 K, Transpiration method | – | 0.0004698
423.2 K, Transpiration method | – | 0.001006
433.2 K, Transpiration method | – | 0.001977
443.2 K, Transpiration method | – | 0.004016
448.2 K, Transpiration method | – | 0.005491

— the NIST ThermoML archive (doi:10.1021/acs.jced.8b01046)
